Key:
Assay type in all cases: functional
Details in all cases: read-out: GI
[1] = system: CCRF-CEM; assay: Growth inhibition of human CCRF-CEM cells at 10 uM incubated for 48 hrs by sulforhodamine B assay relative to control
[2] = system: K562; assay: Growth inhibition of human K562 cells at 10 uM incubated for 48 hrs by sulforhodamine B assay relative to control
[3] = system: RPMI-8226; assay: Growth inhibition of human RPMI-8226 cells at 10 uM incubated for 48 hrs by sulforhodamine B assay relative to control
[4] = system: A549; assay: Growth inhibition of human A549/ATCC cells at 10 uM incubated for 48 hrs by sulforhodamine B assay relative to control
[5] = system: HOP-92; assay: Growth inhibition of human HOP-92 cells at 10 uM incubated for 48 hrs by sulforhodamine B assay relative to control
[6] = system: NCI-H226; assay: Growth inhibition of human NCI-H226 cells at 10 uM incubated for 48 hrs by sulforhodamine B assay relative to control
[7] = system: NCI-H23; assay: Growth inhibition of human NCI-H23 cells at 10 uM incubated for 48 hrs by sulforhodamine B assay relative to control
[8] = system: NCI-H322M; assay: Growth inhibition of human NCI-H322M cells at 10 uM incubated for 48 hrs by sulforhodamine B assay relative to control
[9] = system: NCI-H460; assay: Growth inhibition of human NCI-H460 cells at 10 uM incubated for 48 hrs by sulforhodamine B assay relative to control
[10] = system: NCI-H522; assay: Growth inhibition of human NCI-H522 cells at 10 uM incubated for 48 hrs by sulforhodamine B assay relative to control
[11] = system: COLO 205; assay: Growth inhibition of human COLO 205 cells at 10 uM incubated for 48 hrs by sulforhodamine B assay relative to control
[12] = system: HCC 2998; assay: Growth inhibition of human HCC 2998 cells at 10 uM incubated for 48 hrs by sulforhodamine B assay relative to control
[13] = system: HCT-116; assay: Growth inhibition of human HCT-116 cells at 10 uM incubated for 48 hrs by sulforhodamine B assay relative to control
[14] = system: HCT-15; assay: Growth inhibition of human HCT-15 cells at 10 uM incubated for 48 hrs by sulforhodamine B assay relative to control
[15] = system: HT-29; assay: Growth inhibition of human HT-29 cells at 10 uM incubated for 48 hrs by sulforhodamine B assay relative to control
[16] = system: KM12; assay: Growth inhibition of human KM12 cells at 10 uM incubated for 48 hrs by sulforhodamine B assay relative to control
[17] = system: SW-620; assay: Growth inhibition of human SW-620 cells at 10 uM incubated for 48 hrs by sulforhodamine B assay relative to control
[18] = system: SF-268; assay: Growth inhibition of human SF-268 cells at 10 uM incubated for 48 hrs by sulforhodamine B assay relative to control
[19] = system: SNB-19; assay: Growth inhibition of human SNB-19 cells at 10 uM incubated for 48 hrs by sulforhodamine B assay relative to control
[20] = system: SNB-75; assay: Growth inhibition of human SNB-75 cells at 10 uM incubated for 48 hrs by sulforhodamine B assay relative to control
[21] = system: LOX IMVI; assay: Growth inhibition of human LOX IMVI cells at 10 uM incubated for 48 hrs by sulforhodamine B assay relative to control
[22] = system: Malme-3M; assay: Growth inhibition of human Malme-3M cells at 10 uM incubated for 48 hrs by sulforhodamine B assay relative to control
[23] = system: M14; assay: Growth inhibition of human M14 cells at 10 uM incubated for 48 hrs by sulforhodamine B assay relative to control
[24] = system: MDA-MB-435; assay: Growth inhibition of human MDA-MB-435 cells at 10 uM incubated for 48 hrs by sulforhodamine B assay relative to control
[25] = system: SK-MEL-28; assay: Growth inhibition of human SK-MEL-28 cells at 10 uM incubated for 48 hrs by sulforhodamine B assay relative to control
[26] = system: SK-MEL-5; assay: Growth inhibition of human SK-MEL-5 cells at 10 uM incubated for 48 hrs by sulforhodamine B assay relative to control
[27] = system: UACC-257; assay: Growth inhibition of human UACC-257 cells at 10 uM incubated for 48 hrs by sulforhodamine B assay relative to control
[28] = system: UACC-62; assay: Growth inhibition of human UACC-62 cells at 10 uM incubated for 48 hrs by sulforhodamine B assay relative to control
[29] = system: IGROV-1; assay: Growth inhibition of human IGROV-1 cells at 10 uM incubated for 48 hrs by sulforhodamine B assay relative to control
[30] = system: OVCAR-3; assay: Growth inhibition of human OVCAR-3 cells at 10 uM incubated for 48 hrs by sulforhodamine B assay relative to control
[31] = system: OVCAR-4; assay: Growth inhibition of human OVCAR-4 cells at 10 uM incubated for 48 hrs by sulforhodamine B assay relative to control
[32] = system: OVCAR-5; assay: Growth inhibition of human OVCAR-5 cells at 10 uM incubated for 48 hrs by sulforhodamine B assay relative to control
[33] = system: NCI/ADR-RES; assay: Growth inhibition of human NCI/ADR-RES cells at 10 uM incubated for 48 hrs by sulforhodamine B assay relative to control
[34] = system: SK-OV-3; assay: Growth inhibition of human SK-OV-3 cells at 10 uM incubated for 48 hrs by sulforhodamine B assay relative to control
[35] = system: 786-0; assay: Growth inhibition of human 786-0 cells at 10 uM incubated for 48 hrs by sulforhodamine B assay relative to control
[36] = system: ACHN; assay: Growth inhibition of human ACHN cells at 10 uM incubated for 48 hrs by sulforhodamine B assay relative to control
[37] = system: CAKI-1; assay: Growth inhibition of human CAKI-1 cells at 10 uM incubated for 48 hrs by sulforhodamine B assay relative to control
[38] = system: RXF 393; assay: Growth inhibition of human RXF 393 cells at 10 uM incubated for 48 hrs by sulforhodamine B assay relative to control
[39] = system: TK-10; assay: Growth inhibition of human TK-10 cells at 10 uM incubated for 48 hrs by sulforhodamine B assay relative to control
[40] = system: DU-145; assay: Growth inhibition of human DU-145 cells at 10 uM incubated for 48 hrs by sulforhodamine B assay relative to control
[41] = system: MCF7; assay: Growth inhibition of human MCF7 cells at 10 uM incubated for 48 hrs by sulforhodamine B assay relative to control
[42] = system: MDA-MB-231; assay: Growth inhibition of human MDA-MB-231 cells at 10 uM incubated for 48 hrs by sulforhodamine B assay relative to control
[43] = system: BT-549; assay: Growth inhibition of human BT-549 cells at 10 uM incubated for 48 hrs by sulforhodamine B assay relative to control
[44] = system: T47D; assay: Growth inhibition of human T47D cells at 10 uM incubated for 48 hrs by sulforhodamine B assay relative to control

Compound: O=C(CN1C(=O)C(=O)c2ccccc21)Nc1ccc(-c2nc3ccccc3s2)cc1
- inhibition of growth at 10 µM [1]: 21.8%
- inhibition of growth at 10 µM [2]: 21.3%
- inhibition of growth at 10 µM [3]: 15%
- inhibition of growth at 10 µM [4]: 2.72%
- inhibition of growth at 10 µM [5]: 32.6%
- inhibition of growth at 10 µM [6]: 9.37%
- inhibition of growth at 10 µM [7]: 4.61%
- inhibition of growth at 10 µM [8]: -0.03%
- inhibition of growth at 10 µM [9]: -2.87%
- inhibition of growth at 10 µM [10]: 4.88%
- inhibition of growth at 10 µM [11]: 0.13%
- inhibition of growth at 10 µM [12]: -1.9%
- inhibition of growth at 10 µM [13]: 9.11%
- inhibition of growth at 10 µM [14]: 2.95%
- inhibition of growth at 10 µM [15]: -6.9%
- inhibition of growth at 10 µM [16]: 0.88%
- inhibition of growth at 10 µM [17]: -0.74%
- inhibition of growth at 10 µM [18]: 10.9%
- inhibition of growth at 10 µM [19]: 5.55%
- inhibition of growth at 10 µM [20]: 9.83%
- inhibition of growth at 10 µM [21]: -0.17%
- inhibition of growth at 10 µM [22]: -2.34%
- inhibition of growth at 10 µM [23]: -6.04%
- inhibition of growth at 10 µM [24]: -3.52%
- inhibition of growth at 10 µM [25]: -15.4%
- inhibition of growth at 10 µM [26]: 16.6%
- inhibition of growth at 10 µM [27]: -12.4%
- inhibition of growth at 10 µM [28]: -6.27%
- inhibition of growth at 10 µM [29]: -0.62%
- inhibition of growth at 10 µM [30]: 10.9%
- inhibition of growth at 10 µM [31]: 4.68%
- inhibition of growth at 10 µM [32]: -12.7%
- inhibition of growth at 10 µM [33]: -2.79%
- inhibition of growth at 10 µM [34]: -10.3%
- inhibition of growth at 10 µM [35]: -6.97%
- inhibition of growth at 10 µM [36]: -0.81%
- inhibition of growth at 10 µM [37]: -1.81%
- inhibition of growth at 10 µM [38]: 4.81%
- inhibition of growth at 10 µM [39]: -13.3%
- inhibition of growth at 10 µM [40]: 2.58%
- inhibition of growth at 10 µM [41]: 44.5%
- inhibition of growth at 10 µM [42]: 6.18%
- inhibition of growth at 10 µM [43]: -3.83%
- inhibition of growth at 10 µM [44]: 29.4%

Compound: O=C(CN1CCCCC1)Nc1ccc(-c2nc3ccccc3s2)cc1
- inhibition of growth at 10 µM [1]: 10.4%
- inhibition of growth at 10 µM [2]: 49.8%
- inhibition of growth at 10 µM [3]: 11.3%
- inhibition of growth at 10 µM [4]: 5.89%
- inhibition of growth at 10 µM [5]: 44.5%
- inhibition of growth at 10 µM [6]: 11.3%
- inhibition of growth at 10 µM [7]: 20.8%
- inhibition of growth at 10 µM [8]: -11.9%
- inhibition of growth at 10 µM [9]: -1.42%
- inhibition of growth at 10 µM [10]: -4.5%
- inhibition of growth at 10 µM [11]: -5.35%
- inhibition of growth at 10 µM [12]: 9.72%
- inhibition of growth at 10 µM [13]: 5.5%
- inhibition of growth at 10 µM [14]: 28%
- inhibition of growth at 10 µM [15]: 42.2%
- inhibition of growth at 10 µM [16]: 3.6%
- inhibition of growth at 10 µM [17]: -9.04%
- inhibition of growth at 10 µM [18]: 0.48%
- inhibition of growth at 10 µM [19]: -0.02%
- inhibition of growth at 10 µM [20]: 1.53%
- inhibition of growth at 10 µM [21]: 21%
- inhibition of growth at 10 µM [22]: -9.17%
- inhibition of growth at 10 µM [23]: -5.76%
- inhibition of growth at 10 µM [24]: -6.67%
- inhibition of growth at 10 µM [25]: -9.51%
- inhibition of growth at 10 µM [26]: 9.16%
- inhibition of growth at 10 µM [27]: 2.05%
- inhibition of growth at 10 µM [28]: 5.84%
- inhibition of growth at 10 µM [29]: -10.3%
- inhibition of growth at 10 µM [30]: -0.25%
- inhibition of growth at 10 µM [31]: 4.89%
- inhibition of growth at 10 µM [32]: -4.63%
- inhibition of growth at 10 µM [33]: 6.26%
- inhibition of growth at 10 µM [34]: 4.61%
- inhibition of growth at 10 µM [35]: 13.9%
- inhibition of growth at 10 µM [36]: -5.42%
- inhibition of growth at 10 µM [37]: 9.3%
- inhibition of growth at 10 µM [38]: 13%
- inhibition of growth at 10 µM [39]: -14.8%
- inhibition of growth at 10 µM [40]: 0.74%
- inhibition of growth at 10 µM [41]: 75.1%
- inhibition of growth at 10 µM [42]: 41.5%
- inhibition of growth at 10 µM [43]: 1.67%
- inhibition of growth at 10 µM [44]: 17.8%

Reference: ChEMBL document CHEMBL4765227, “Hit to lead optimization of a series of N-[4-(1,3-benzothiazol-2-yl)phenyl]acetamides as monoacylglycerol lipase inhibitors with potential anticancer activity” (Eur J Med Chem, 2016)
